This data set in a line: Purity and stability test (content of impurities on storage). It counts as physicochemical. The conditions noted are these: for Content of impurities in the initial sample: before storage; for 0-8° C., content of impurities in the sample at 7 day: sealed containers at 0-8° C. for 7 days. The method, then: In this example, the purity and stability of the samples obtained in Comparative Examples and Examples were compared. The specific method is described as follows:
And then the content of impurities in each sample was analyzed.

Consider `CC(O)C1NC(=O)C(N)CC(O)C(O)NC(=O)C2C(O)C(C)CN2C(=O)C(C(O)CC(N)=O)NC(=O)C(C(O)C(O)c2ccc(O)c(OS(=O)(=O)O)c2)NC(=O)C2CC(O)CN2C1=O` (single isomer, unassigned) [Comparative Example 3], for which the “Content of impurities in the initial sample” value is given as 1.9% and the “0-8° C., content of impurities in the sample at 7 day” value (“0-8° C., content of impurities” for short) is on record as 3.2%.

With `CC(O)C1NC(=O)C(N)CC(O)C(O)NC(=O)C2C(O)C(C)CN2C(=O)C(C(O)CC(N)=O)NC(=O)C(C(O)C(O)c2ccc(O)c(OS(=O)(=O)O)c2)NC(=O)C2CC(O)CN2C1=O` (single isomer, unassigned) [Comparative Example 4], the “Content of impurities in the initial sample” value was 1.8% and the “0-8° C., content of impurities” value worked out at 2.9%.

On to `CC(O)C1NC(=O)C(N)CC(O)C(O)NC(=O)C2C(O)C(C)CN2C(=O)C(C(O)CC(N)=O)NC(=O)C(C(O)C(O)c2ccc(O)c(OS(=O)(=O)O)c2)NC(=O)C2CC(O)CN2C1=O` (single isomer, unassigned) [Comparative Example 6], for which the “Content of impurities in the initial sample” value is on record as 2.4% and the “0-8° C., content of impurities” value is 4.1%.

`CC(O)C1NC(=O)C(N)CC(O)C(O)NC(=O)C2C(O)C(C)CN2C(=O)C(C(O)CC(N)=O)NC(=O)C(C(O)C(O)c2ccc(O)c(OS(=O)(=O)O)c2)NC(=O)C2CC(O)CN2C1=O` (single isomer, unassigned) [Comparative Example 5]: the “Content of impurities in the initial sample” value was determined as 2.1% and the “0-8° C., content of impurities” value is 3.6%.

As for `C[C@@H](O)[C@@H]1NC(=O)[C@@H](N)C[C@@H](O)[C@@H](O)NC(=O)[C@@H]2[C@@H](O)[C@@H](C)CN2C(=O)[C@H]([C@H](O)CC(N)=O)NC(=O)[C@H]([C@H](O)[C@@H](O)c2ccc(O)c(OS(=O)(=O)O)c2)NC(=O)[C@@H]2C[C@@H](O)CN2C1=O` [Example 1], the “Content of impurities in the initial sample” value came out at 2.5% and the “0-8° C., content of impurities” value came out at 4.8%.

For the compound `CC(O)C1NC(=O)C(N)CC(O)C(O)NC(=O)C2C(O)C(C)CN2C(=O)C(C(O)CC(N)=O)NC(=O)C(C(O)C(O)c2ccc(O)c(OS(=O)(=O)O)c2)NC(=O)C2CC(O)CN2C1=O` (single isomer, unassigned) [Comparative Example 2], the “Content of impurities in the initial sample” value was determined as 1.9% and the “0-8° C., content of impurities” value was 3.4%.

As to `CC(O)C1NC(=O)C(N)CC(O)C(O)NC(=O)C2C(O)C(C)CN2C(=O)C(C(O)CC(N)=O)NC(=O)C(C(O)C(O)c2ccc(O)c(OS(=O)(=O)O)c2)NC(=O)C2CC(O)CN2C1=O` (single isomer, unassigned) [Comparative Example 7], the “Content of impurities in the initial sample” value amounted to 2.4% and the “0-8° C., content of impurities” value was 4.7%.

The values are drawn from patent US9580470B2, “High-purity cyclopeptide crystal as well as preparation method and use thereof” (SHANGHAI TECHWELL BIOPHARMACEUTICAL CO., LTD., priority 2012, dated 2017).
